Measured values: BindingDB's records for doi:10.1016/s0960-894x(02)01027-2 (Glaxosmithkline, 2003)

Legend:
[1] = molecular target: Methionine--tRNA ligase (Staphylococcus aureus); test: Compound tested for inhibition of Staphylococcus aureus MRS(methionyl tRNA synthetase) in aminoacylation assay
[2] = molecular target: Methionine--tRNA ligase (Staphylococcus aureus); test: as above; remark: listed apart in the source

Row | Structure (SMILES) | IC50 [1] [nM] | IC50 [2] [nM]
1 | Oc1cc(NCCCNCc2cc(Br)cc(Br)c2)nc2ccccc12 | < 3 | –
2 | Oc1cc(NCCCNCc2cc(Cl)cc(Cl)c2Cl)nc2ccccc12 | < 3 | –
3 | CCOc1c(I)cc(I)cc1CNCCCNc1cc(O)c2ccccc2n1 | < 3 | –
4 | CCOc1c(Cl)cc(OC)cc1CNCCCNc1cc(O)c2ccccc2n1 [2-[3-(3-Chloro-2-ethoxy-5-methoxy-benzylamino)-propylamino]-1H-quinolin-4-one] | – | 4.3
5 | Oc1cc(NCCCNCc2cc(Br)cc(Br)c2OCC(F)(F)F)nc2ccccc12 [2-{3-[3,5-Dibromo-2-(2,2,2-trifluoro-ethoxy)-benzylamino]-propylamino}-1H-quinolin-4-one] | – | 11

Further lines, results first:

Row | IC50 [1] [nM] | IC50 [2] [nM] | Structure (SMILES)
6 | – | 140 | O=C(NCCCNc1cc(O)c2ccccc2n1)c1ccc(Cl)c(Cl)c1 [3,4-Dichloro-N-[3-(4-oxo-1,4-dihydro-quinolin-2-ylamino)-propyl]-benzamide]
7 | – | 4.6 | CCOc1c(Br)cc(C#N)cc1CNCCCNc1cc(O)c2ccccc2n1 [3-Bromo-4-ethoxy-5-{[3-(4-oxo-1,4-dihydro-quinolin-2-ylamino)-propylamino]-methyl}-benzonitrile]
